Measured values as given in patent publication US10167279B2 (NOVARTIS AG, priority 2014, dated 2019).

Legend:
[1] = molecular target: C-Raf FL (Homo sapiens (Human), UniProt P04049, Y340E/Y341E); assay: In vitro Raf activity determination (Alpha Screen, phospho-MEK), C-Raf FL (full length, Y340E/Y341E); type: biochemical; conditions: ATP 1 μM; 60 min pre-incubation; 1 hour reaction; column head does not say FL or TR
In short: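 Read-out is AlphaScreen luminescence using rabbit anti-p-MEK with protein A beads after EDTA stop, with IC50 fitted by non-linear regression. Reaction: Sf9-derived C-Raf plus biotinylated E. coli MEK1 K97R substrate, pH 7.5 Tris/MgCl2/DTT buffer, compound preincubated 60 min at room temperature.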

[2] = molecular target: b-Raf (V600E) (Homo sapiens (Human), UniProt P15056, V600E); assay: In vitro Raf activity determination (Alpha Screen, phospho-MEK), b-Raf (V600E); type: biochemical; conditions: ATP 10 μM, 60 min pre-incubation, 3 hours reaction
Sequence of b-Raf (V600E) (P15056 whole entry V600E): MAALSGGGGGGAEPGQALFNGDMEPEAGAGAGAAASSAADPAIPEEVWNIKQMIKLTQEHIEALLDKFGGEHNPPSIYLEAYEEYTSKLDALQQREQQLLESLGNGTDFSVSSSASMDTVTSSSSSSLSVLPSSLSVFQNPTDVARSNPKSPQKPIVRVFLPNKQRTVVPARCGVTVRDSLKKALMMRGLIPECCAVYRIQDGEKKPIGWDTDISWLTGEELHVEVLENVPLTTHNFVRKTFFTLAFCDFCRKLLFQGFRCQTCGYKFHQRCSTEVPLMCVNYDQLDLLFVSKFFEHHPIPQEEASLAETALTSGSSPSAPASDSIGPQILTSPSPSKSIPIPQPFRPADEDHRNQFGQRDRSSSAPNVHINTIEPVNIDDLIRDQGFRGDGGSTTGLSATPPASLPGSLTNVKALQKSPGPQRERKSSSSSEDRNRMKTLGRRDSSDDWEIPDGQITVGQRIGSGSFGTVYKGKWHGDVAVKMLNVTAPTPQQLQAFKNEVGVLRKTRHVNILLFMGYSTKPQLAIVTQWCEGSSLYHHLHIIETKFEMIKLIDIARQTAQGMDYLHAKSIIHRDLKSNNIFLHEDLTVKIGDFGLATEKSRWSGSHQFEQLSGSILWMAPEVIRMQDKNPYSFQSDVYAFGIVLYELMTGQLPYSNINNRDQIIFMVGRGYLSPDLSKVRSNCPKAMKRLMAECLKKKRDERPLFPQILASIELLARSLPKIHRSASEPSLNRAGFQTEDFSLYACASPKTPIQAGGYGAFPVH
Source text: The activity of a compound according to the present invention can be assessed by well-known in vitro & in vivo methods. Raf inhibition data provided herein was obtained using the following procedures.
Sf9 cells co-expressing both proteins were lysed and subjected to immobilized nickel chromatography and eluted with Imidazole. A second column (StrepII binding column) was used and eluted with desthiobiotin. Protein Tags were removed using Prescission enzyme and the protein was further purified using a flowthrough step to remove tags.
Full length MEK1 with an inactivating K97R ATP binding site mutation is utilized as a RAF substrate. The MEK1 cDNA was subcloned with an N-terminal (his)6 tag into a vector for E. Coli expression. The MEK1 substrate was purified from E. Coli lysate by nickel affinity chromatography followed by anion exchange. The final MEK1 preparation was biotinylated (Pierce EZ-Link Sulfo-NHS-LC-Biotin) and concentrated.
The plate was incubated for 60 minutes at room temperature. […] The additions were carried out under dark conditions to protect the detection beads from light. A lid was placed on top of the plate and incubated for 1 hour at room temperature, after which the luminescence was read on a PerkinElmer Envision instrument.

Sequence of C-Raf FL (P04049 whole entry Y340E/Y341E): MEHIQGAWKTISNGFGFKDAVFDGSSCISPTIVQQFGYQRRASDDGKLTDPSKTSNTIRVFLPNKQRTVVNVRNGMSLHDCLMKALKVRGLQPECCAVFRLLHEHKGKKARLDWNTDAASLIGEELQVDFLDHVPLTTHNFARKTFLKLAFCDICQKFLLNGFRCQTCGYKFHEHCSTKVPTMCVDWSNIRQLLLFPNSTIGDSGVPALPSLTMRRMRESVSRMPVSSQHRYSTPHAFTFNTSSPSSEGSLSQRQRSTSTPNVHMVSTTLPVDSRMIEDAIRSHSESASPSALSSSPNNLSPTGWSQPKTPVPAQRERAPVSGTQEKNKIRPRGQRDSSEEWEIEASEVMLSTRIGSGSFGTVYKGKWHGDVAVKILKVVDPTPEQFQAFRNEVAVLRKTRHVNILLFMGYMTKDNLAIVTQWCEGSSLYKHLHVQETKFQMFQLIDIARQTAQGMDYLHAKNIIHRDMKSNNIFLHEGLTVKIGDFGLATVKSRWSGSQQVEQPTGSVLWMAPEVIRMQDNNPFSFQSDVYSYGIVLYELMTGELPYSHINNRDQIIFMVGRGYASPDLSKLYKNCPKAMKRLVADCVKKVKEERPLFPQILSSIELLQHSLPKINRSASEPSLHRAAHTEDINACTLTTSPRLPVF
Sequence of C-Raf FL (P63104 whole entry partner): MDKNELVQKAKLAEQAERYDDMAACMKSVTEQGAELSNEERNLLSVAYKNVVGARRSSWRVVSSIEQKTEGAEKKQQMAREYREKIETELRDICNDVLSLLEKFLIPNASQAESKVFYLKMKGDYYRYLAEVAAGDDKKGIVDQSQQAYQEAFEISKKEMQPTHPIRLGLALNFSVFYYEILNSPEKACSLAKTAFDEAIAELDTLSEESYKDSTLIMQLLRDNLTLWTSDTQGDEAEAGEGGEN

Row | SMILES | IC50 [1] | IC50 [2]
1 | COc1ncc(-c2cc(C(=O)Nc3cccc(C(C)(C)C#N)c3)ccc2C)cc1C1(O)COC1 [Example 146, N-(3-(2-cyanopropan-2-yl)phenyl)-3-(5-(3-hydroxyoxetan-3-yl)-6-methoxypyridin-3-yl)-4-methylbenzamide] | 0.801 nM | 3.31 nM
2 | CCOc1ncc(-c2cc(NC(=O)c3ccnc(C(C)(C)C#N)c3)cnc2C)cc1C1(C)COC1 [Example 64, 2-(2-cyanopropan-2-yl)-N-(6′-ethoxy-2-methyl-5′-(3-methyloxetan-3-yl)-[3,3′-bipyridin]-5-yl)isonicotinamide] | 1.18 nM | 7.12 nM
3 | COc1ncc(-c2cc(NC(=O)c3ccnc(C(C)(C)C#N)c3)ccc2C)cc1C1(C=O)COC1 [Example 43, 2-(2-cyanopropan-2-yl)-N-(3-(5-(3-formyloxetan-3-yl)-6-methoxypyridin-3-yl)-4-methylphenyl)isonicotin-amide] | 2.67 nM | 10.2 nM
4 | CCOc1nnc(-c2cc(NC(=O)c3cc(CN(C)C)cc(C(F)(F)F)c3)cnc2C)cc1C1(C)COC1 [Example 129, 3-((dimethylamino)methyl)-N-(5-(6-ethoxy-5-(3-methyloxetan-3-yl)pyridazin-3-yl)-6-methylpyridin-3-yl)-5-(trifluoromethyl)benzamide] | 3.54 nM | 23.4 nM
5 | Cc1ccc(NC(=O)c2ccnc(C(C)(C)C#N)c2)cc1-c1cnc(OC2CCOCC2)c(C2(O)COC2)c1 [Example 33, 2-(2-cyanopropan-2-yl)-N-(3-(5-(3-hydroxyoxetan-3-yl)-6-((tetrahydro-2H-pyran-4-yl)oxy)pyridin-3-yl)-4-methylphenyl)isonicotin-amide] | 0.804 nM | 2.14 nM
6 | Cc1ccc(NC(=O)c2ccnc(C(C)(C)C#N)c2)cc1-c1cc(C2(C)COC2)c2nccn2n1 [Example 29, 2-(2-cyanopropan-2-yl)-N-(4-methyl-3-(8-(3-methyloxetan-3-yl)imidazo[1,2-b]pyridazin-6-yl)phenyl)isonicotinamide] | 0.637 nM | 4.95 nM
7 | Cc1ncc(NC(=O)c2ccnc(C(C)(F)F)c2)cc1-c1cccc(C2(C)COC2)c1 [Example 68, 2-(1,1-difluoroethyl)-N-(6-methyl-5-(3-(3-methyloxetan-3-yl)phenyl)pyridin-3-yl)isonicotinamide] | 0.618 nM | 3.71 nM
8 | CCOc1ncc(-c2cc(NC(=O)c3cnnc(C(C)(C)C#N)c3)cnc2C)cc1C1(C)COC1 [Example 65, 6-(2-cyanopropan-2-yl)-N-(6′-ethoxy-2-methyl-5′-(3-methyloxetan-3-yl)-[3,3′-bipyridin]-5-yl)pyridazine-4-carboxamide] | 1.13 nM | 7.13 nM
9 | COc1ncc(-c2cc(NC(=O)c3cc(C(F)(F)F)ccn3)ccc2C)cc1C1(F)COC1 [Example 88, N-(3-(5-(3-fluorooxetan-3-yl)-6-methoxypyridin-3-yl)-4-methylphenyl)-4-(trifluoromethyl)picolin-amide] | 0.303 nM | 0.934 nM
10 | COc1ncc(-c2cc(NC(=O)c3cc(C(C)(C)N)cc(C(F)(F)F)c3)ccc2C)cc1C1(F)COC1 [Example 107, 3-(2-aminopropan-2-yl)-N-(3-(5-(3-fluorooxetan-3-yl)-6-methoxypyridin-3-yl)-4-methylphenyl)-5-(trifluoromethyl)benzamide] | 0.725 nM | 2.96 nM
11 | Cc1ncc(NC(=O)c2ccnc(C(C)(C)F)c2)cc1-c1cccc(C2(C)COC2)c1 [Example 69, 2-(2-fluoropropan-2-yl)-N-(6-methyl-5-(3-(3-methyloxetan-3-yl)phenyl)pyridin-3-yl)isonicotinamide] | 0.895 nM | 5.1 nM
12 | COc1ncc(-c2cc(NC(=O)c3ccnc(C4(C#N)CC4)c3)ccc2C)cc1C1(O)COC1 [Example 100] | 0.3 nM | 2.2 nM

Continued, values first:

Row | IC50 [1] | IC50 [2] | SMILES
13 | 0.36 nM | 2.07 nM | COc1ncc(-c2cc(NC(=O)c3ccnc(C(C)(F)F)c3)ccc2C)cc1C1(O)COC1 [Example 74, 2-(1,1-difluoroethyl)-N-(3-(5-(3-hydroxyoxetan-3-yl)-6-methoxypyridin-3-yl)-4-methylphenyl)isonicotin-amide]
14 | 6.36 nM | 76.6 nM | COc1ncc(-c2cc(NC(=O)c3ccnc(C(F)(F)F)c3)cnc2C)cc1C1(O)COC1 [Example 75, N-(5′-(3-hydroxyoxetan-3-yl)-6′-methoxy-2-methyl-[3,3′-bipyridin]-5-yl)-2-(trifluoromethyl)isonicotin-amide]
15 | 0.165 nM | 1.22 nM | CCOc1ncc(-c2cc(NC(=O)c3ccnc(C(C)(F)F)c3)ccc2C)cc1C1(O)COC1 [Example 123, 2-(1,1-difluoroethyl)-N-(3-(6-ethoxy-5-(3-hydroxyoxetan-3-yl)pyridin-3-yl)-4-methylphenyl)isonicotin-amide]
16 | 1.84 nM | 12 nM | Cc1ncc(NC(=O)c2cccc(C(F)(F)F)c2)cc1-c1cnc(OCCO)c(C2(O)COC2)c1 [Example 36, N-(6′-(2-hydroxyethoxy)-5′-(3-hydroxyoxetan-3-yl)-2-methyl-[3,3′-bipyridin]-5-yl)-3-(trifluoromethyl)benzamide]
17 | 0.628 nM | 6.88 nM | COc1cc(-c2cc(NC(=O)c3cccc(C(F)(F)F)c3)cnc2C)cc(C2COC2)c1 [Example 20, N-(5-(3-methoxy-5-(oxetan-3-yl)phenyl)-6-methylpyridin-3-yl)-3-(trifluoromethyl)-benzamide]
18 | 0.9 nM | 4.75 nM | COc1ncc(-c2cc(NC(=O)c3cc(C(C)(C)N)cc(C(F)(F)F)c3)cnc2C)cc1C1(C(F)F)COC1 [Example 113, 3-(2-aminopropan-2-yl)-N-(5′-(3-(difluoromethyl)oxetan-3-yl)-6′-methoxy-2-methyl-[3,3′-bipyridin]-5-yl)-5-(trifluoromethyl)benzamide]
19 | 121 nM | 1180 nM | Cc1ncc(NC(=O)c2cccc(C(F)(F)F)c2)cc1-c1cc(C2(F)COC2)c(=O)n(CC(O)CO)c1 (stereo not drawn) [Example 45, N-(1′-(2,3-dihydroxypropyl)-5′-(3-fluorooxetan-3-yl)-2-methyl-6′-oxo-1′,6′-dihydro-[3,3′-bipyridin]-5-yl)-3-(trifluoromethyl)benzamide]
20 | 3.09 nM | 20.1 nM | CCOc1ncc(-c2cc(NC(=O)c3cc(C(C)(C)N)cc(C(F)(F)F)c3)cnc2C)cc1C1(F)COC1 [Example 130, 3-(2-aminopropan-2-yl)-N-(6′-ethoxy-5′-(3-fluorooxetan-3-yl)-2-methyl-[3,3′-bipyridin]-5-yl)-5-(trifluoromethyl)benzamide]
21 | 2.68 nM | 13.2 nM | COc1ncc(-c2cc(NC(=O)c3cc(C(C)(C)N)cc(C(F)(F)F)c3)cnc2C)cc1C1(F)COC1 [Example 102, 3-(2-aminopropan-2-yl)-N-(5′-(3-fluorooxetan-3-yl)-6′-methoxy-2-methyl-[3,3′-bipyridin]-5-yl)-5-(trifluoromethyl)benzamide]
22 | 3.09 nM | 23.4 nM | COc1ncc(-c2cc(NC(=O)c3ccnc(C(C)(C)O)c3)ccc2C)cc1C1(O)COC1 [Example 73, N-(3-(5-(3-hydroxyoxetan-3-yl)-6-methoxypyridin-3-yl)-4-methylphenyl)-2-(2-hydroxypropan-2-yl)isonicotinamide]
23 | 1.06 nM | 7.01 nM | COc1ncc(-c2cc(NC(=O)c3ccnc(C(F)(F)F)c3)cnc2C)cc1C1(C#N)COC1 [Example 115, N-(5′-(3-cyanooxetan-3-yl)-6′-methoxy-2-methyl-[3,3′-bipyridin]-5-yl)-2-(trifluoromethyl)isonicotin-amide]
24 | 2.24 nM | 9.5 nM | COc1ncc(-c2cc(NC(=O)c3cc(C(C)(C)N)cc(C(F)(F)F)c3)cnc2C)cc1C1(CF)COC1 [Example 109, 3-(2-aminopropan-2-yl)-N-(5′-(3-(fluoromethyl)oxetan-3-yl)-6′-methoxy-2-methyl-[3,3′-bipyridin]-5-yl)-5-(trifluoromethyl)benzamide]
25 | 0.0915 nM | 0.323 nM | COc1ncc(-c2cc(NC(=O)c3ccnc(C(F)(F)F)c3)ccc2C)cc1C1(CF)COC1 [Example 105, N-(3-(5-(3-(fluoromethyl)oxetan-3-yl)-6-methoxypyridin-3-yl)-4-methylphenyl)-2-(trifluoromethyl)isonicotin-amide]
26 | 1.13 nM | 3.73 nM | COc1ncc(-c2cc(NC(=O)c3ccnc(C(C)(C)F)c3)cnc2C)cc1C1(F)COC1 [Example 82, N-(5′-(3-fluorooxetan-3-yl)-6′-methoxy-2-methyl-[3,3′-bipyridin]-5-yl)-2-(2-fluoropropan-2-yl)isonicotinamide]
27 | 3.57 nM | 24 nM | COc1ncc(-c2cc(NC(=O)c3ccnc(C(C)(F)F)c3)cnc2C)cc1C1(O)COC1 [Example 77, 2-(1,1-difluoroethyl)-N-(5′-(3-hydroxyoxetan-3-yl)-6′-methoxy-2-methyl-[3,3′-bipyridin]-5-yl)isonicotinamide]
